≈ marks a conversion by molar mass, not a printed value. One block for each molecule: values may come before it.
Tests used:
[1] = molecular target: Cyclin-dependent kinase 2 (Homo sapiens, UniProt P24941); assay: Inhibition of CDK2/Cyclin A
[2] = molecular target: Cyclin-dependent kinase 1/cyclin B1 (Homo sapiens) (UniProt P06493+P14635); conditions: 1000 uM
[3] = molecular target: Aurora kinase B (Homo sapiens, UniProt Q96GD4); assay: Inhibition of Aurora B
[4] = molecular target: Cyclin-dependent kinase 1/cyclin B1 (Homo sapiens, UniProt P06493); assay: Inhibition of CDK1/Cyclin B; format: protein-complex assay
[5] = tested on: HCT-116; assay: Cytotoxicity against human HCT116 cells assessed as distinct polyploidy phenotype after 72 hrs; format: functional
[6] = tested on: HCT-116; assay: Cytotoxicity against human HCT116 cells assessed as number of colonies after 10 to 14 days by colony forming assay; format: functional, cell-based
[7] = molecular target: T1, Aurora kinase A (Homo sapiens, UniProt O14965)
T1 sequence (O14965 whole entry): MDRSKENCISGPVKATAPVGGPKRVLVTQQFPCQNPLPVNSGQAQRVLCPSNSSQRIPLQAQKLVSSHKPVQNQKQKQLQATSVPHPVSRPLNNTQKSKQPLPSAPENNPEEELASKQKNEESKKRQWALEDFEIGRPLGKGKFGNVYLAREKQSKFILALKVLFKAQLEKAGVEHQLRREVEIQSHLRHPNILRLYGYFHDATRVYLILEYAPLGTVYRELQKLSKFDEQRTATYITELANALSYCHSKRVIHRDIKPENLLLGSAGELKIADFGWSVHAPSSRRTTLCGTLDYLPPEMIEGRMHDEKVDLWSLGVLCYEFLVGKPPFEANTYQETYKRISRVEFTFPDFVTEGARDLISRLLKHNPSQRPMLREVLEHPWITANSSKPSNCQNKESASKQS

[8] = in vitro; conditions: mouse, plasma
[9] = tested on: Mus musculus; assay: Toxicity in BALB/c mouse bearing human HCT116 cells assessed as body weight at 15 mg/kg, ip relative to starting weight; format: organism-based, HCT-116; set-up: dose 15 mg/kg, route intraperitoneal; conditions: in vivo
[10] = tested on: Mus musculus; assay: Toxicity in BALB/c mouse bearing human HCT116 cells assessed as body weight at 20 mg/kg, ip relative to starting weight; format: organism-based, HCT-116; set-up: dose 20 mg/kg, route intraperitoneal; conditions: in vivo
[11] = tested on: HCT-116; assay: Antitumor activity against human HCT116 cells xenografted in BALB/c mouse at 20 mg/kg, ip after 16 days relative to control; format: functional; conditions: route intraperitoneal
[12] = tested on: HCT-116; assay: Antitumor activity against human HCT116 cells xenografted in BALB/c mouse at 15 mg/kg, ip after 16 days relative to control; format: functional; conditions: route intraperitoneal
[13] = Lipophilicity, log D at pH 7.4; format: physicochemical; conditions: buffer
[14] = molecular target: T2, Cytochrome P450 1A2 (Homo sapiens, UniProt P05177); assay: Inhibition of CYP1A2; format: ADME
T2 sequence (P05177 whole entry): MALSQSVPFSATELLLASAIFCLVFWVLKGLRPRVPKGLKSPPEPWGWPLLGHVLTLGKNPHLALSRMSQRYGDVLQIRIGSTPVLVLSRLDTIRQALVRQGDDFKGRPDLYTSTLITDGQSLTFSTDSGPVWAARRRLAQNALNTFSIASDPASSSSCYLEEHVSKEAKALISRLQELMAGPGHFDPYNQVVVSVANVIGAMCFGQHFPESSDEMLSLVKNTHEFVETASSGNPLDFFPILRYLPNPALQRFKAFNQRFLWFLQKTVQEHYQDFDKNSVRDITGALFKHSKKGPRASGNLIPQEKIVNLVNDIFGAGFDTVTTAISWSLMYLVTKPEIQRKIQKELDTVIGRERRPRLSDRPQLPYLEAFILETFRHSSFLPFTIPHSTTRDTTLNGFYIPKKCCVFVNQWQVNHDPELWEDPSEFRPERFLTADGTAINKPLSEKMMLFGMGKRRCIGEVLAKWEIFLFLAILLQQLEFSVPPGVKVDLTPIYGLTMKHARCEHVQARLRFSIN

[15] = Volume of distribution at steady state in BALB/c mouse bearing human HCT116 cells at 5 mg/kg, iv; format: ADME, organism-based, HCT-116; set-up: dose 5 mg/kg, route intravenous; conditions: in vivo, read-out: Vdss
[16] = molecular target: Vascular endothelial growth factor receptor 3 (Homo sapiens, UniProt P35916); assay: Inhibition of VEGFR3
[17] = Cmax in BALB/c mouse bearing human HCT116 cells at 10 mg/kg, po; format: ADME, organism-based, HCT-116; set-up: dose 10 mg/kg, route oral; conditions: in vivo
[18] = Bioavailability in BALB/c mouse bearing human HCT116 cells at 20 mg/kg, ip; format: ADME, organism-based, HCT-116; conditions: in vivo
[19] = Half life in human HCT116 cells xenografted BALB/c mouse tumor at 10 mg/kg, iv; format: ADME, organism-based, HCT-116; set-up: dose 10 mg/kg, route intravenous
[20] = Clearance in BALB/c mouse bearing human HCT116 cells at 5 mg/kg, iv; format: ADME, organism-based, HCT-116; set-up: dose 5 mg/kg, route intravenous; conditions: in vivo, read-out: MLC
[21] = Cmax in BALB/c mouse bearing human HCT116 cells at 20 mg/kg, ip; format: ADME, organism-based, HCT-116; set-up: dose 20 mg/kg, route intraperitoneal; conditions: in vivo
[22] = molecular target: Tyrosine-protein kinase Yes (Homo sapiens, UniProt P07947); assay: Inhibition of Yes
[23] = Solubility at pH 5.5; format: physicochemical; conditions: buffer
[24] = Cmax in BALB/c mouse bearing human HCT116 cells at 5 mg/kg, iv; format: ADME, organism-based, HCT-116; set-up: dose 5 mg/kg, route intravenous; conditions: in vivo
[25] = molecular target: Glycogen synthase kinase-3 beta (Homo sapiens, UniProt P49841); assay: Inhibition of GSK3-beta
[26] = Solubility at pH 7.0; format: physicochemical; conditions: buffer
[27] = molecular target: T3, Serine/threonine-protein kinase 17A (Homo sapiens, UniProt Q9UEE5); assay: Inhibition of DRAK1
T3 sequence (Q9UEE5 whole entry): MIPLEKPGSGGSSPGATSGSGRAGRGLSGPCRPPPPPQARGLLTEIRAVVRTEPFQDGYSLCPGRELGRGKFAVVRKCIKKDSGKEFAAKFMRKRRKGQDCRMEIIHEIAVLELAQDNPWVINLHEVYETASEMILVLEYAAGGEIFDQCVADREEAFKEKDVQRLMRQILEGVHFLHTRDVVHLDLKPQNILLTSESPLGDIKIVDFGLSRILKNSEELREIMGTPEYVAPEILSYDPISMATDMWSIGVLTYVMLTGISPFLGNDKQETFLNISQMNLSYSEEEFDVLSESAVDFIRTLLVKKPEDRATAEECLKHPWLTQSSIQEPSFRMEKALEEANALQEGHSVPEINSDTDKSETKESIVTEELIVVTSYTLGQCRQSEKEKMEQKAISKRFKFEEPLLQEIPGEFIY

[28] = molecular target: Cytochrome P450 2C9 (Homo sapiens, UniProt P11712); assay: Inhibition of CYP2C9; format: ADME
[29] = AUC (0 to t) in BALB/c mouse bearing human HCT116 cells at 5 mg/kg, iv; format: ADME, organism-based, HCT-116; set-up: dose 5 mg/kg, route intravenous; conditions: in vivo
[30] = molecular target: Cytochrome P450 2D6 (Homo sapiens, UniProt P10635); assay: Inhibition of CYP2D6; format: ADME
[31] = AUC (0 to t) in BALB/c mouse bearing human HCT116 cells at 10 mg/kg, po; format: ADME, organism-based, HCT-116; set-up: dose 10 mg/kg, route oral; conditions: in vivo
[32] = molecular target: Cytochrome P450 2C19 (Homo sapiens, UniProt P33261); assay: Inhibition of CYP2C19; format: ADME
[33] = Half life in BALB/c mouse plasma bearing human HCT116 cells at 5 mg/kg, iv; format: ADME, organism-based, HCT-116; set-up: dose 5 mg/kg, route intravenous
[34] = Oral bioavailability in BALB/c mouse bearing human HCT116 cells at 10 mg/kg; format: ADME, organism-based, HCT-116; conditions: in vivo
[35] = AUC (0 to t) in BALB/c mouse bearing human HCT116 cells at 20 mg/kg, ip; format: ADME, organism-based, HCT-116; set-up: dose 20 mg/kg, route intraperitoneal; conditions: in vivo
[36] = Plasma concentration in mouse assessed per kg body weight; format: ADME, organism-based
[37] = Oral bioavailability in mouse; format: ADME, organism-based; conditions: in vivo

Aurora kinase B, sequence (Q96GD4 whole entry): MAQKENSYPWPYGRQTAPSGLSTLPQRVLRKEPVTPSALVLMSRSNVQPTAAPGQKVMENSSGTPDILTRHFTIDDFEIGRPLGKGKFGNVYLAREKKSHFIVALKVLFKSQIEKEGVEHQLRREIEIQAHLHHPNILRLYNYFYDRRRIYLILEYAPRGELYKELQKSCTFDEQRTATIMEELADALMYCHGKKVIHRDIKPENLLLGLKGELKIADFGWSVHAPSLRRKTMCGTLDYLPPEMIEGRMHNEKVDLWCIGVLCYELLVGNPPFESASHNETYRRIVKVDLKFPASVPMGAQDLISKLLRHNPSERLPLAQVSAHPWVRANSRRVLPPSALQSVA
Cyclin-dependent kinase 1/cyclin B1, sequence (P06493 whole entry): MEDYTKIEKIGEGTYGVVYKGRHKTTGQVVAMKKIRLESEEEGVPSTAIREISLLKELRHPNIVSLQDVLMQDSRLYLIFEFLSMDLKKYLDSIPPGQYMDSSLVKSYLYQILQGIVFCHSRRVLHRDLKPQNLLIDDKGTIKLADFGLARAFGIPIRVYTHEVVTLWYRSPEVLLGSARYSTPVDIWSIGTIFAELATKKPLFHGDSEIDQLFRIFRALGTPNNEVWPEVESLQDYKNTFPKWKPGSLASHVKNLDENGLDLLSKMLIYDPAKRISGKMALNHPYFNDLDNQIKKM
Cyclin-dependent kinase 1/cyclin B1, sequence (P14635 whole entry, further chain): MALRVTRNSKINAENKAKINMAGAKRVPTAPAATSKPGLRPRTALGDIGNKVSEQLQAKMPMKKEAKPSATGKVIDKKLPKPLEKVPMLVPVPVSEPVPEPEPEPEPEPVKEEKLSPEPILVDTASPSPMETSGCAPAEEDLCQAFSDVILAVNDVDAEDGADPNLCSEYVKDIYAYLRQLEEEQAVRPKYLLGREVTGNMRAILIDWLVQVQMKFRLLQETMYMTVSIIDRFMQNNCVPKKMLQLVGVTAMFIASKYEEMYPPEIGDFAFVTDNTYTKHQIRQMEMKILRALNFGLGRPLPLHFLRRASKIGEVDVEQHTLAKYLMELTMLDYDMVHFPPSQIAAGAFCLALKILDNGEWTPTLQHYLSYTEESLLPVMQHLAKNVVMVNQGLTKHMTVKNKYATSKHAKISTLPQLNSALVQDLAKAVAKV
Cytochrome P450 2C9, sequence (P11712 whole entry): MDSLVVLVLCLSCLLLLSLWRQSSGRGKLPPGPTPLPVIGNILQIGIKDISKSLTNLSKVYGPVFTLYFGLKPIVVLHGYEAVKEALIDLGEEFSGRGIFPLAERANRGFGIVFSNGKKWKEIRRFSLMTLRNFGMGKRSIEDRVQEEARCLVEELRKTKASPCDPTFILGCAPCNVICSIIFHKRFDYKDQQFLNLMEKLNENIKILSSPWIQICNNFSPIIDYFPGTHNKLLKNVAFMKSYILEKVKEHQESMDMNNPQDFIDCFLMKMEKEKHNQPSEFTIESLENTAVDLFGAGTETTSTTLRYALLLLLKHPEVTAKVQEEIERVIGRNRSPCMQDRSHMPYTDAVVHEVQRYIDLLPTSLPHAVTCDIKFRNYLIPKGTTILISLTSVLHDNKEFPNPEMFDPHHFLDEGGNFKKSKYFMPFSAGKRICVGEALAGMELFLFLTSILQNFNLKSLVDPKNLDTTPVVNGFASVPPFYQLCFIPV
Cytochrome P450 2D6, sequence (P10635 whole entry): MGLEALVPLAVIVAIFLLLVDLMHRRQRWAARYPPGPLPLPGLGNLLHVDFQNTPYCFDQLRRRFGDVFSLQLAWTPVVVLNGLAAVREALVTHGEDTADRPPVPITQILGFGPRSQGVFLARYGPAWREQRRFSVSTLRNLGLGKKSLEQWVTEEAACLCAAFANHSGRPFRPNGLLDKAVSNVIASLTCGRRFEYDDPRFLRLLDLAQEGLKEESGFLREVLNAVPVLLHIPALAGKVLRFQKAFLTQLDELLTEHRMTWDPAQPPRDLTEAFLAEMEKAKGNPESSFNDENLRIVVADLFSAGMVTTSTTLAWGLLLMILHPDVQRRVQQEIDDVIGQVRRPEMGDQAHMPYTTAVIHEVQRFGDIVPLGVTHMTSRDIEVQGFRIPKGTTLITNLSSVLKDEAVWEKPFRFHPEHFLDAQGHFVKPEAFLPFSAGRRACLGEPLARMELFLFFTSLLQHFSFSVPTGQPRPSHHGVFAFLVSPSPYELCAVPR
Glycogen synthase kinase-3 beta, sequence (P49841 whole entry): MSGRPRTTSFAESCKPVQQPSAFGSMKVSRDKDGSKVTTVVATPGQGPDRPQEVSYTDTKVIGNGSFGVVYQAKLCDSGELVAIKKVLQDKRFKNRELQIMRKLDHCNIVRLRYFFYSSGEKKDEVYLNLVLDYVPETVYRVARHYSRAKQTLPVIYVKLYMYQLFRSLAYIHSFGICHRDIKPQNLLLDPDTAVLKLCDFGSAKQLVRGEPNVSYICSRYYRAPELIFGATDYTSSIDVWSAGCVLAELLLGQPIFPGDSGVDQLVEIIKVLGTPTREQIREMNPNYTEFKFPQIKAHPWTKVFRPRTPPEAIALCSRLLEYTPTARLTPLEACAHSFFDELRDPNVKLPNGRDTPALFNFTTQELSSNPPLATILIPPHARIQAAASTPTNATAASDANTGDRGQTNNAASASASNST
Tyrosine-protein kinase Yes, sequence (P07947 whole entry): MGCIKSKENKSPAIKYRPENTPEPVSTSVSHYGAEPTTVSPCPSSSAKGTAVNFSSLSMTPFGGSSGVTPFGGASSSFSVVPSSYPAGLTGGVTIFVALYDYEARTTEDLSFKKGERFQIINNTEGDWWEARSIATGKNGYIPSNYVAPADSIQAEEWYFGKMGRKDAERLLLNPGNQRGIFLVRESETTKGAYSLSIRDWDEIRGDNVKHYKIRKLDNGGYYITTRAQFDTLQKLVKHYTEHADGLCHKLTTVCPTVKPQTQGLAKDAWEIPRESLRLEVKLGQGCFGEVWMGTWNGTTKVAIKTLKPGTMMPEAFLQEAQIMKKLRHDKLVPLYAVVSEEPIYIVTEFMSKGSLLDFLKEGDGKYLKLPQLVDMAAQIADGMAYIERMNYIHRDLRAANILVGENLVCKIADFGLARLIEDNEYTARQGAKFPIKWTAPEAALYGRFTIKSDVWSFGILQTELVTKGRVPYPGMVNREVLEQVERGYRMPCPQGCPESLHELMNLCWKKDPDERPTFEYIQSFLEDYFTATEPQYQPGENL
Cytochrome P450 2C19, sequence (P33261 whole entry): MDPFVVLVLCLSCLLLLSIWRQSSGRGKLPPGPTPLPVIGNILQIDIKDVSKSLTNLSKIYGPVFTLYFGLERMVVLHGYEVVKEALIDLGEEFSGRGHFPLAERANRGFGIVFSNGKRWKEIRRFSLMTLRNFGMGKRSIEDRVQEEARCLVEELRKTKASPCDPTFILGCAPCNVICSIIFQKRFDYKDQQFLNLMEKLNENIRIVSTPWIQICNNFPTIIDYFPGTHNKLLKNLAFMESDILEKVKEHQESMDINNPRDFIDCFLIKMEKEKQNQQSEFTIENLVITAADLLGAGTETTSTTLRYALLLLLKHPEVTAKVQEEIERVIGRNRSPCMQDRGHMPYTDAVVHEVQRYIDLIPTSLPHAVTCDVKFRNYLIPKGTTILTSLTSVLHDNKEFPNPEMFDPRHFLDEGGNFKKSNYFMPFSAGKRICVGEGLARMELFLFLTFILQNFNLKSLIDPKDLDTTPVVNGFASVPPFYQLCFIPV
Vascular endothelial growth factor receptor 3, sequence (P35916 whole entry): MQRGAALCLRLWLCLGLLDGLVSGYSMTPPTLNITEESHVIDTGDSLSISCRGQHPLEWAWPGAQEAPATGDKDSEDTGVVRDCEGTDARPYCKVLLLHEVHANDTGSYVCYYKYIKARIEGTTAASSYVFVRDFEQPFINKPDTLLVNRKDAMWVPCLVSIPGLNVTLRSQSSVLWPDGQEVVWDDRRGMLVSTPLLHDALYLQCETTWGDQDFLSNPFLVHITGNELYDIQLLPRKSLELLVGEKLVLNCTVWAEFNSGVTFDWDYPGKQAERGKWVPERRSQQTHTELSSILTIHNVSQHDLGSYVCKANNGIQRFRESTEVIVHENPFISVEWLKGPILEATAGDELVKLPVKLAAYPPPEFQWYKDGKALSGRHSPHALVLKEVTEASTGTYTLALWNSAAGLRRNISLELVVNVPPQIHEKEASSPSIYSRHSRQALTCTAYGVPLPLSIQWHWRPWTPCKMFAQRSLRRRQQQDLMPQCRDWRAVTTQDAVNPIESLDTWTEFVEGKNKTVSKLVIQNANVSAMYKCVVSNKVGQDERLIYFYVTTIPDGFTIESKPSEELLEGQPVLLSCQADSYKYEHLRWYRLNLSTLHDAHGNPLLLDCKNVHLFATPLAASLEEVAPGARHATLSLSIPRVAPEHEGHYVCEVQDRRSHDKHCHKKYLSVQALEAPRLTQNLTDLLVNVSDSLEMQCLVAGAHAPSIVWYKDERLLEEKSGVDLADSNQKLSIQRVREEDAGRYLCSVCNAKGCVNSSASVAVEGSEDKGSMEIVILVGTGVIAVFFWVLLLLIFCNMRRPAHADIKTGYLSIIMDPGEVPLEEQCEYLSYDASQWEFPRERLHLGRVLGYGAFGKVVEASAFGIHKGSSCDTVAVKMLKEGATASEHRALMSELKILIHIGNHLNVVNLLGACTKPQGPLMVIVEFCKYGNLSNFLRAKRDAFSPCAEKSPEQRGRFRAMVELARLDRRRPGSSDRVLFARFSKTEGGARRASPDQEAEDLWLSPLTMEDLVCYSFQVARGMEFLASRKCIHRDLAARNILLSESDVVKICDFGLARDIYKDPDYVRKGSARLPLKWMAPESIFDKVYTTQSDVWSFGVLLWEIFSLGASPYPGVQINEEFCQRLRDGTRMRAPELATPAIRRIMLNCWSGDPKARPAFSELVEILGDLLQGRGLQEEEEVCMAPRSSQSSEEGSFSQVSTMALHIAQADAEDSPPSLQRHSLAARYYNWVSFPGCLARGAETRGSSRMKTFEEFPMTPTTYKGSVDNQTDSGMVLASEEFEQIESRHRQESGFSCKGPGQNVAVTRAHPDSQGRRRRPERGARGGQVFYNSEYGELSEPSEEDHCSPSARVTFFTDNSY

SMILES: c1ccc2[nH]c(-c3cc[nH]n3)nc2c1
IC50 [1]: 28000 nM
inhibition [2]: 49%
IC50 [3]: 6500 nM

IC50 [4]: 230 nM
IC50 [3]: 180 nM
SMILES: O=C(Nc1c[nH]nc1-c1nc2ccccc2[nH]1)c1ccccc1
Activity [5]: 3 µM

SMILES: Cc1cc(Nc2cc(N3CCN(C)CC3)nc(Sc3ccc(NC(=O)C4CC4)cc3)n2)n[nH]1 [TOZASERTIB]
IC50 [6]: 24 nM
Activity [5]: 0.03 µM

IC50 [4]: 290 nM
IC50 [1]: 160 nM
IC50 [3]: 24 nM
IC50 [7]: 13 nM
SMILES: O=C(Nc1cccnc1)Nc1c[nH]nc1-c1nc2cc(CN3CCOCC3)ccc2[nH]1
Activity [5]: 1 µM

IC50 [4]: 2900 nM
IC50 [1]: 1200 nM
IC50 [3]: 5.2 nM
IC50 [7]: 5.7 nM
SMILES: O=C(Nc1c[nH]nc1-c1nc2cc(CN3CCOCC3)ccc2[nH]1)NC1CCCCC1
Activity [5]: 0.1 µM

IC50 [4]: 5500 nM
IC50 [1]: 1800 nM
fraction unbound [8]: 0.047
IC50 [3]: 54 nM
SMILES: O=C(Nc1ccccc1)Nc1c[nH]nc1-c1nc2cc(CN3CCOCC3)ccc2[nH]1
Activity [5]: 0.3 µM

IC50 [4]: 17000 nM
IC50 [3]: 10 nM
IC50 [7]: 26 nM
SMILES: O=C(Nc1c[nH]nc1-c1nc2cc(CN3CCOCC3)ccc2[nH]1)NC1CCOCC1
Activity [5]: 1 µM

SMILES: Cl.O=C(Nc1c[nH]nc1-c1nc2cc(CN3CCOCC3)ccc2[nH]1)NC1CC1
Activity [9]: Non-toxic
Activity [10]: Non-toxic
T/C [11]: 24%
T/C [12]: 33%

IC50 [4]: 290 nM
IC50 [1]: 160 nM
logD [13]: 3.1
fraction unbound [8]: 0.169
IC50 [3]: 2.6 nM
IC50 [7]: 1.5 nM
SMILES: O=C(Nc1c[nH]nc1-c1nc2cc(CN3CCOCC3)ccc2[nH]1)Nc1c(F)cccc1F
IC50 [6]: 17 nM
Activity [5]: 0.03 µM

IC50 [14]: > 10 µM
Vd [15]: 3.9 L/kg
IC50 [16]: 1 nM
Cmax [17]: 450 nM
bioavailability [18]: 100%
half-life [19]: 150 min
clearance [20]: 114 mL/min/kg
Cmax [21]: 8.4 µM
IC50 [22]: 1 nM
solubility [23]: 13 mg/mL (≈ 34.1 mM)
Cmax [24]: 4.9 µM
IC50 [25]: 1 nM
solubility [26]: 2000 µg/mL (≈ 5.24 mM)
IC50 [27]: 10 nM
logD [13]: 2.1
IC50 [28]: > 10 µM
AUC(0-t) [29]: 1.9 µM·h
IC50 [30]: > 10 µM
AUC(0-t) [31]: 0.91 µM·h
IC50 [32]: > 10 µM
half-life [33]: 30 min
bioavailability [34]: 24%
AUC(0-t) [35]: 7.7 µM·h
SMILES: O=C(Nc1c[nH]nc1-c1nc2ccc(CN3CCOCC3)cc2[nH]1)NC1CC1 [AT-9283]
IC50 [6]: 12 nM

clearance [36]: 43 mL/min/kg
IC50 [4]: 1500 nM
bioavailability [37]: 26%
IC50 [1]: 530 nM
fraction unbound [8]: 0.005
IC50 [3]: 75 nM
SMILES: O=C(Nc1c[nH]nc1-c1nc2ccc(CN3CCOCC3)cc2[nH]1)c1ccc(F)cc1
Activity [5]: 0.3 µM

IC50 [4]: 1100 nM
IC50 [1]: 230 nM
IC50 [3]: 10 nM
IC50 [7]: 2.8 nM
SMILES: O=C(Nc1ccccc1F)Nc1c[nH]nc1-c1nc2cc(CN3CCOCC3)ccc2[nH]1
Activity [5]: 0.1 µM

IC50 [4]: 3200 nM
IC50 [1]: 990 nM
IC50 [3]: 510 nM
IC50 [7]: 70 nM
SMILES: CC(=O)Nc1c[nH]nc1-c1nc2ccccc2[nH]1

IC50 [4]: 340 nM
IC50 [1]: 140 nM
IC50 [3]: 15 nM
IC50 [7]: 3.5 nM
SMILES: O=C(Nc1c[nH]nc1-c1nc2cc(CN3CCOCC3)ccc2[nH]1)c1ccccc1
Activity [5]: 0.1 µM

— ChEMBL document CHEMBL1139387, “Fragment-based discovery of the pyrazol-4-yl urea (AT9283), a multitargeted kinase inhibitor with potent aurora kinase activity” (J Med Chem, 2009)
